Laboratory results from paper PMC7115581 (European Journal of Medicinal Chemistry, 2016).

How the values were obtained:
[1] = Cytotoxicity, inhibition of HEL cell growth; assay type: cell-based, human; conditions: human, human embryonic lung (HEL) cells, CC50, cytotoxic concentration required to reduce HEL cell growth by 50%; 3 days
[2] = system: human embryonic lung (HEL) cells; test: Cytotoxicity, inhibition of HEL cell growth; assay type: cell-based; conditions: for cytotoxic activity (in words): at 100 μM
[3] = system: human embryonic lung (HEL) cells; conditions: Table 2, concentration that causes a microscopically detectable alteration of morphology
[4] = system: varicella-zoster virus (VZV) TK+ OKA strain; test: microbe, parasite or virus in culture; assay type: cell-based; conditions: Human alphaherpesvirus 3, HEL, read-out: EC50 TK+ OKA
[5] = system: human cytomegalovirus (HCMV) Davis strain; test: microbe, parasite or virus in culture; assay type: cell-based; conditions: Human betaherpesvirus 5, HEL, read-out: Antiviral activity EC50 HMCV Davis
[6] = system: varicella zoster virus (VZV); conditions: for antiviral activity (in words): at 100 μM; for anti-VZV activity (in words): HEL cells
[7] = system: HCMV, HSV-1, HSV-2; assay type: cell-based; conditions: HCMV AD-169 and Davis, HSV-1 KOS and TK- KOS ACVr, HSV-2 G; HEL cell cultures
[8] = system: broad variety of RNA viruses, including HIV-1 and HIV-2, feline coronavirus, vesicular stomatitis virus, Coxsackie virus B4, respiratory syncytial virus …; assay type: cell-based
[9] = system: varicella zoster virus (VZV); test: in vitro; conditions: human
[10] = system: varicella zoster virus (VZV); test: microbe, parasite or virus in culture; conditions: Human alphaherpesvirus 3, HEL, read-out: EC50 against VZV

Row | Structure (SMILES) | Cytotoxicity MMC [3] [µM] | anti-VZV activity (in words) [6] | other results
1 | Nc1nc2c(ncn2COCCO)c(=O)[nH]1 [Acyclovir, acyclovir, reference compound] | >250 |  | CC50 at 3 days [1]: 224000 nM; CC50 ([2]; cytotoxic concentration required to reduce HEL cell growth by 50%, 3 days): 191000 nM
2 | O=c1[nH]c(=O)n([C@H]2C[C@H](O)[C@@H](CO)O2)cc1/C=C/Br [Brivudin, brivudin, reference compound] | >250 |  | EC50 [4]: 20 to 30 nM
3 | Nc1ccn(C[C@@H](CO)OCP(=O)(O)O)c(=O)n1.O.O [Cidofovir, reference compound] | >250 |  | EC50 [5]: 510 nM
4 | CCCn1cc(C(=O)c2ccc(Cl)cc2)c2ccccc21 [Compound 4a] | >100 |  | cytotoxic activity (in words) [2]: do not displayed antiviral or cytotoxic activities; antiviral activity (in words) [6]: do not displayed antiviral or cytotoxic activities
5 | CCCn1cc(CN2CCCCC2)c2ccccc21 [Compound 4b] | >100 |  | cytotoxic activity (in words) [2]: do not displayed antiviral or cytotoxic activities; antiviral activity (in words) [6]: do not displayed antiviral or cytotoxic activities
6 | CCCn1cc(CNCCc2ccc(-c3ccccc3)cc2)c2ccccc21 [Compound 4c] | 4 |  | 
7 | c1ccc(-c2ccc(Cn3cc(CN4CCCCC4)c4ccccc43)cc2)cc1 [Compound 4d] | 20 |  | 
8 | CCCn1cc(CN2CCCCC2)c2cc(CNc3ccc(Cl)cc3)ccc21 [Compound 8a] | 20 |  | 
9 | CCCn1cc(CNCCc2ccc(-c3ccccc3)cc2)c2cc(CNc3ccc(Cl)cc3)ccc21 [Compound 8b] | 20 |  | 
10 | CCCn1cc(CN2CCCCC2)c2cc(NC(=O)c3ccccc3)ccc21 [Compound 8c] | 100 |  | 
11 | COC(=O)c1ccc(CNCCc2cn(Cc3ccc(-c4ccccc4)cc3)c3ccccc23)cc1 [Compound 15] | 20 |  | 
12 | Cn1cc(CCNCCc2ccc(-c3ccccc3)cc2)c2ccccc21 [Compound 16a] | >4 |  | 
13 | CC(=O)N(CCc1ccc(-c2ccccc2)cc1)CCc1cn(C)c2ccccc12 [Compound 17a] | 20 |  | activity against other Herpesviridae (in words) [7]: totally inactive; inhibitory activity against RNA viruses (in words) [8]: totally inactive; selectivity ratio [9]: 10 to 20; EC50 [10]: 1700 to 3600 nM
14 | CC(=O)N(CCc1cn(C)c2ccccc12)c1ccc2ccccc2c1 [Compound 17d] |  | complete loss of the antiviral activity | 
15 | CC(=O)N(CCc1cn(C)c2ccccc12)c1cccc2ccccc12 [Compound 17e] |  | complete loss of the antiviral activity | 
16 | CC(=O)N(CCc1cn(C)c2ccccc12)Cc1ccc2ccccc2c1 [Compound 17f] |  | complete loss of the antiviral activity | 
17 | CC(=O)N(CCc1cn(C)c2ccccc12)Cc1cccc2ccccc12 [Compound 17g] |  | complete loss of the antiviral activity | 
18 | CC(=O)N(CCc1cn(C)c2ccccc12)Cc1ccc(-c2ccccc2)cc1 [Compound 17h] |  | complete loss of the antiviral activity | 
19 | CC(=O)N(CCc1cn(C)c2ccccc12)Cc1ccc(Oc2ccccc2)cc1 [Compound 17i] |  | complete loss of the antiviral activity | 
20 | Cn1cc(CCN(CCc2ccc(-c3ccccc3)cc2)C(=O)C2CCCCC2)c2ccccc21 [Compound 18a] |  | annihilation of antiviral activity | 
21 | Cn1cc(CCN(CCc2ccc(-c3ccccc3)cc2)C(=O)CCN2CCOCC2)c2ccccc21 [Compound 18c] |  | annihilation of antiviral activity | 
22 | Cn1cc(CCN(CCc2ccc(-c3ccccc3)cc2)C(=O)OC(C)(C)C)c2ccccc21 [Compound 18d] |  | annihilation of antiviral activity | 
